Patent US20250276063A1, “PLACENTA-DERVIED NK CELLS AS A SENOL YTIC FOR THERAPEUTIC AND OTHER USES” (Celularity Inc., priority 2021, published 2025)

Assays:
CD34+ cells = test: NK cell expansion from CD34+ cells cultured with compound, Day 35; format: cell-based, human; conditions: for supported NK expansion: compound 10 μM during the first 14 days of the culture; for expansion compared to SR1 at Day 35: compound 10 μM, SR1 10 μM positive control
Description: UCB CD34+ cells were cultivated in presence of cytokines including thrombopoietin, SCF, Flt3 ligand, IL-7, IL-15 and IL-2 for 35 days to produce three-stage NK cells, as described in Example 1. Multi-color flow cytometry was used to determine the phenotypic characteristics of three-stage NK cells.
(§1) For biological testing, the compounds were provided to culture to evaluate their effects on NK cell expansion and differentiation. Specifically, donors of CD34+ cells (StemCell Technology) were thawed and expanded in vitro following NK culture protocol. During the first 14 days of the culture, each CRL compounds was dissolved in DMSO and added to the culture at 10 μM concentration. SR1 (at 10 μM) served as a positive control compound, while DMSO alone without any compound served as a negative control. At the end of the culture on Day 35, cell expansion, natural killer (NK) cell differentiation and cytotoxicity of the cells against K562 tumor cell line were characterized. Due to the large number of the compounds, the testing was performed in two experiments, CRL1-11 and CRL 12-22. The same donors were used for each experiment. Positive and negative controls were also included in both experiments.

K562 tumor cells = test: Cytotoxicity assay of compound cultured cells against K562 tumor cells; format: cell-based; conditions: 10:1 effector to target ratio; both donors
Description: as §1
Cytotoxicity assay was run using compound cultured cells against K562 tumor cells at 10:1 effector to target ratio (FIG. 5) to evaluate cell functions.

Row | Compound | supported NK expansion (CD34+ cells) | killing activities compared to cells cultured with SR1 (K562 tumor cells) | expansion compared to SR1 at Day 35 (CD34+ cells)
1 | CCC(C)Nc1nc(NCCc2c[nH]c3ccccc23)c2ccccc2n1 (centres unmarked) [CRL13, N^4-(2-(H-indol-3-yl)ethyl)-N^2-(sec-butyl)quinazoline-2,4-diamine] | all the compounds except CRL7 and CRL13 supported PNK-007 expansion and differentiation | – | –
2 | Fc1cncc(-c2nc(NCCc3c[nH]c4ccccc34)c3occc3n2)c1 [CRL19, N-(2-(1H-indol-3-yl)ethyl)-2-(5-fluoropyridin-3-yl)furo[3,2-d]pyrimidin-4-amine] | supported cell expansion the best | – | –
3 | Cc1cncc(-c2nc(NCCc3c[nH]c4ccccc34)c3occc3n2)c1 [CRL20, N-(2-(1H-indol-3-yl)ethyl)-2-(5-methylpyridin-3-yl)furo[3,2-d]pyrimidin-4-amine] | supported cell expansion the best | – | –
4 | CC(C)c1csc2c(NCCc3c[nH]c4ccccc34)nc(-c3cncc(C#N)c3)nc12 [CRL17, 5-(4-((2-(1H-indol-3-yl)ethyl)amino)-7-isopropylthieno[3,2-d]pyrimidin-2-yl)nicotinonitrile] | – | increased killing activities of the cells | slightly less expansion compared to SR1
5 | N#Cc1cncc(-c2nc(NCCc3c[nH]c4ccccc34)c3occc3n2)c1 [CRL22, 5-(4-((2-(1H-indol-3-yl)ethyl)amino)furo[3,2-d]pyrimidin-2-yl)nicotinonitrile] | supported cell expansion the best | – | –
6 | CC(C)c1csc2c(NCCc3c[nH]c4ccccc34)nc(-c3cncc(F)c3)nc12 [CRL18, N-(2-(1H-indol-3-yl)ethyl)-2-(5-fluoropyridin-3-yl)-7-isopropylthieno[3,2-d]pyrimidin-4-amine] | – | increased killing activities of the cells | slightly less expansion compared to SR1
7 | Cc1cncc(-c2nc(NCCc3c[nH]c4ccccc34)c3scc(C(C)C)c3n2)c1 [CRL21, N-(2-(1H-indol-3-yl)ethyl)-7-isopropyl-2-(5-methylpyridin-3-yl)thieno[3,2-d]pyrimidin-4-amine] | – | increased killing activities of the cells | slightly less expansion compared to SR1
8 | CCC(C)Nc1cc(-c2cncc(C#N)c2)nc(NCCc2c[nH]c3ccccc23)n1 (centres unmarked) [CRL7, 5-(2-((2-(1H-indol-3-yl)ethyl)amino)-6-(sec-butylamino)pyrimidin-4-yl)nicotinonitrile] | all the compounds except CRL7 and CRL13 supported PNK-007 expansion and differentiation | – | –
